Test results: ChEMBL document CHEMBL1201862, “PubChem BioAssay data set” (2004)
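Five compound concentrations were applied to cells in 96-well plates for 48 hours; endpoints were derived by simple linear interpolation of the resulting dose-response curve. GI50 = concentration required for 50% inhibition of growth.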 The source made the active and inactive calls. Cut-off read from the data, not from the text of the source: active = GI50 up to about 1.1 µM and inactive = higher.

How the values were obtained:
Experiment in all cases: NCI anticancer screen, dose series, 48 h
786-0 = system: 786-0
A549 = system: A549
ACHN = system: ACHN
BT-549 = system: BT-549
CAKI-1 = system: CAKI-1
CCRF-CEM = system: CCRF-CEM
COLO 205 = system: COLO 205
DU-145 = system: DU-145
EKVX = system: EKVX
HCT-116 = system: HCT-116
HCT-15 = system: HCT-15
HOP-92 = system: HOP-92
HT-29 = system: HT-29
Hs-578T = system: Hs-578T
IGROV-1 = system: IGROV-1
K562 = system: K562
KM12 = system: KM12
LOX IMVI = system: LOX IMVI
M14 = system: M14
MCF7 = system: MCF7
MDA-MB-231 = system: MDA-MB-231
MDA-MB-435 = system: MDA-MB-435
MDA-N = system: MDA-N
MOLT-4 = system: MOLT-4
Malme-3M = system: Malme-3M
NCI-H226 = system: NCI-H226
NCI-H23 = system: NCI-H23
NCI-H522 = system: NCI-H522
NCI/ADR-RES = system: NCI/ADR-RES
OVCAR-3 = system: OVCAR-3
OVCAR-4 = system: OVCAR-4
OVCAR-5 = system: OVCAR-5
OVCAR-8 = system: OVCAR-8
PC-3 = system: PC-3
SF-268 = system: SF-268
SF-539 = system: SF-539
SK-MEL-2 = system: SK-MEL-2
SK-MEL-5 = system: SK-MEL-5
SK-OV-3 = system: SK-OV-3
SNB-19 = system: SNB-19
SNB-75 = system: SNB-75
SW-620 = system: SW-620
TK-10 = system: TK-10
U-251 = system: U-251
UACC-257 = system: UACC-257
UACC-62 = system: UACC-62
UO-31 = system: UO-31
A498 = system: A498
HL-60 = system: HL-60
HOP-62 = system: HOP-62
NCI-H460 = system: NCI-H460
RPMI-8226 = system: RPMI-8226
RXF 393 = system: RXF 393
SF-295 = system: SF-295
SK-MEL-28 = system: SK-MEL-28
SN12C = system: SN12C
SR = system: SR
HCC 2998 = system: HCC 2998
T47D = system: T47D

Measured: GI50

COc1ccccc1/C=C1\SC(=S)N(/C=C2\C(=O)Oc3ccccc3C2=O)C1=O
inactive: 786-0 34.8 µM | A549 27.9 µM | ACHN 47.5 µM | BT-549 21.1 µM | CCRF-CEM 36.2 µM | COLO 205 24 µM | DU-145 33.3 µM | EKVX 24.1 µM | HCT-116 34.4 µM | HOP-92 18.4 µM | HT-29 38.7 µM | Hs-578T 33.5 µM | IGROV-1 36.6 µM | K562 36.6 µM | KM12 34.3 µM | LOX IMVI 34.9 µM | M14 36.2 µM | MCF7 35.5 µM | MDA-MB-231 23 µM | MDA-MB-435 25.6 µM | MDA-N 33.4 µM | MOLT-4 33.9 µM | Malme-3M 23.2 µM | NCI-H226 35.3 µM | NCI-H23 1.62 µM | NCI-H522 26.5 µM | NCI/ADR-RES 29.3 µM | OVCAR-3 19.8 µM | OVCAR-4 33.2 µM | OVCAR-5 59.8 µM | OVCAR-8 28.8 µM | PC-3 38.5 µM | SF-268 33.3 µM | SF-539 29 µM | SK-MEL-2 21.9 µM | SK-MEL-5 20.5 µM | SK-OV-3 23 µM | SNB-19 32.7 µM | SNB-75 22 µM | SW-620 43.2 µM | TK-10 28.1 µM | U-251 34.3 µM | UACC-257 22.9 µM | UACC-62 23.8 µM | UO-31 23.2 µM
28.1 µM: HCT-15
active: CAKI-1 0.458 µM

S=C(c1c[nH]c2ccccc12)N1CCCCC1
inactive: 786-0 > 100 µM | A498 > 100 µM | ACHN > 100 µM | BT-549 92.9 µM | CAKI-1 > 100 µM | CCRF-CEM 89.9 µM | COLO 205 > 100 µM | DU-145 > 100 µM | EKVX 85.9 µM | HCT-116 95.1 µM | HL-60 70.6 µM | HOP-62 > 100 µM | HT-29 > 100 µM | Hs-578T > 100 µM | IGROV-1 67.9 µM | K562 72.4 µM | KM12 > 100 µM | LOX IMVI > 100 µM | M14 > 100 µM | MCF7 84.1 µM | MDA-MB-231 > 100 µM | MDA-MB-435 85.5 µM | MDA-N > 100 µM | MOLT-4 58.1 µM | Malme-3M > 100 µM | NCI-H226 > 100 µM | NCI-H23 > 100 µM | NCI-H460 > 100 µM | NCI/ADR-RES 66.5 µM | OVCAR-3 > 100 µM | OVCAR-5 > 100 µM | OVCAR-8 > 100 µM | PC-3 49.8 µM | RPMI-8226 36.9 µM | RXF 393 62.5 µM | SF-268 > 100 µM | SF-295 62.1 µM | SF-539 > 100 µM | SK-MEL-28 > 100 µM | SK-MEL-2 > 100 µM | SK-MEL-5 40 µM | SK-OV-3 > 100 µM | SN12C > 100 µM | SNB-19 > 100 µM | SR > 100 µM | SW-620 > 100 µM | TK-10 > 100 µM | U-251 64.9 µM | UACC-257 > 100 µM | UACC-62 > 100 µM
82.2 µM: HCT-15

COCCOCCOCCC(=O)NC1CC2CCC1(C)C2(C)C (centres undefined)
> 100 µM: HCT-15
inactive: 786-0 > 100 µM | A498 > 100 µM | A549 > 100 µM | ACHN > 100 µM | BT-549 > 100 µM | CAKI-1 > 100 µM | CCRF-CEM > 100 µM | COLO 205 > 100 µM | DU-145 > 100 µM | EKVX > 100 µM | HCC 2998 > 100 µM | HCT-116 > 100 µM | HL-60 > 100 µM | HOP-62 > 100 µM | HT-29 > 100 µM | Hs-578T > 100 µM | IGROV-1 > 100 µM | K562 > 100 µM | KM12 > 100 µM | LOX IMVI > 100 µM | M14 > 100 µM | MCF7 > 100 µM | MDA-MB-231 > 100 µM | MDA-MB-435 > 100 µM | MDA-N > 100 µM | MOLT-4 > 100 µM | Malme-3M > 100 µM | NCI-H226 > 100 µM | NCI-H23 > 100 µM | NCI-H460 > 100 µM | NCI/ADR-RES > 100 µM | OVCAR-3 > 100 µM | OVCAR-4 > 100 µM | OVCAR-5 > 100 µM | OVCAR-8 > 100 µM | PC-3 > 100 µM | RPMI-8226 > 100 µM | RXF 393 > 100 µM | SF-268 > 100 µM | SF-295 > 100 µM | SF-539 > 100 µM | SK-MEL-28 > 100 µM | SK-MEL-5 > 100 µM | SK-OV-3 > 100 µM | SN12C > 100 µM | SNB-19 > 100 µM | SNB-75 > 100 µM | SR > 100 µM | SW-620 > 100 µM | TK-10 > 100 µM | U-251 > 100 µM | UACC-257 > 100 µM | UACC-62 > 100 µM | UO-31 > 100 µM

Nc1cc(C(=O)O)nc(O)n1
> 100 µM: HCT-15
inactive: 786-0 > 100 µM | A498 > 100 µM | A549 > 100 µM | ACHN > 100 µM | BT-549 > 100 µM | CAKI-1 > 100 µM | CCRF-CEM > 100 µM | COLO 205 > 100 µM | DU-145 > 100 µM | EKVX > 100 µM | HCC 2998 > 100 µM | HCT-116 > 100 µM | HL-60 > 100 µM | HOP-62 > 100 µM | HOP-92 > 100 µM | HT-29 > 100 µM | Hs-578T > 100 µM | IGROV-1 > 100 µM | K562 > 100 µM | KM12 > 100 µM | LOX IMVI > 100 µM | M14 > 100 µM | MCF7 > 100 µM | MDA-MB-231 > 100 µM | MDA-MB-435 > 100 µM | MDA-N > 100 µM | MOLT-4 > 100 µM | Malme-3M > 100 µM | NCI-H226 > 100 µM | NCI-H23 > 100 µM | NCI-H460 > 100 µM | NCI-H522 > 100 µM | NCI/ADR-RES > 100 µM | OVCAR-3 > 100 µM | OVCAR-4 > 100 µM | OVCAR-5 > 100 µM | OVCAR-8 > 100 µM | PC-3 > 100 µM | RPMI-8226 > 100 µM | RXF 393 > 100 µM | SF-268 > 100 µM | SF-295 > 100 µM | SK-MEL-28 > 100 µM | SK-MEL-2 > 100 µM | SK-MEL-5 > 100 µM | SK-OV-3 > 100 µM | SN12C > 100 µM | SNB-19 > 100 µM | SR > 100 µM | SW-620 > 100 µM | TK-10 > 100 µM | U-251 > 100 µM | UACC-257 > 100 µM | UACC-62 > 100 µM | UO-31 > 100 µM

COC(=O)C1=C(O)C(C(=O)OC)[C@@]2(O)[C@@H](C(=O)OC)CC[C@@H]1[C@@H]2C(=O)OC (some centres undefined)
inactive: A498 16.5 µM | ACHN 39.2 µM | BT-549 25.5 µM | CCRF-CEM 25.2 µM | DU-145 44.7 µM | EKVX 23 µM | HCC 2998 16.4 µM | HCT-116 30.4 µM | HL-60 23.3 µM | HOP-62 23.8 µM | HT-29 > 100 µM | Hs-578T 11.1 µM | K562 25.4 µM | KM12 21.6 µM | LOX IMVI 21.3 µM | M14 22.6 µM | MCF7 35.6 µM | MDA-MB-231 25.1 µM | MDA-MB-435 18.2 µM | MOLT-4 29.4 µM | Malme-3M 21.5 µM | NCI-H226 20.1 µM | NCI-H23 17.8 µM | NCI-H460 16.1 µM | NCI-H522 10.6 µM | OVCAR-3 21.3 µM | OVCAR-5 28.2 µM | RPMI-8226 27.2 µM | RXF 393 12.2 µM | SF-268 29.4 µM | SF-539 18.6 µM | SK-MEL-28 27.9 µM | SK-MEL-2 16 µM | SK-OV-3 19.2 µM | SN12C 25.4 µM | SNB-19 43.4 µM | SNB-75 17.9 µM | SR 14.9 µM | T47D 54.2 µM | TK-10 23 µM | U-251 22.3 µM | UACC-257 27.4 µM | UACC-62 30 µM | UO-31 29.2 µM
20.6 µM: HCT-15
